Assay results published in patent publication US9452988B2, “Bendamustine derivatives and methods of using same” (Ignyta, Inc., priority 2012, dated 2016).
Where two headings read alike, the source gives them in different places. Marks after values point to notes of the source that are not given here.

Legend:
[1] = tested on: H-460 (NSCLC); test: MTS cell assay, H-460; assay type: cell-based, Human; details: Homo sapiens, NCI-H460, 72 hours
Procedure: (§1) Human carcinoma cells (2,000 cells/well) were incubated with the desired concentration of the test molecule (0-200 μM) for 72 hours. The cells were then incubated with MTS solution (Promega) for 1-2 hours, and the compounds effects on cell proliferation was determined by measuring the absorbance at 490 nm. Cell growth was expressed as a percent of the appropriate control (placebo). […] All data reported was the mean±SE of three independent experiments.

[2] = tested on: MB-231 (HBC); test: MTS cell assay, MB-231; assay type: cell-based, Human; details: Homo sapiens, 72 hours
Procedure: Charles River Labs athymic nude mice bearing MDA-MB-231 breast carcinoma cell line subcutaneous xenografts (5×10^6 cells in matrigel) were sacrificed to make a tumor isolate. Using sterile instruments and working aseptically, the tumors were removed from the euthanized animal. The tumor was placed in a 50 mL sterile conical tube and 5 mL of trypsin was added. The tumor was cut into small pieces and incubated at 37° C. for 30 minutes. After incubation, a cell strainer was placed on a second, sterile, 50 mL conical tube and the contents of the first tube were placed in the cell strainer. The tissue was forced through the filter using the flat end of a syringe plunger. The cell strainer was washed with 5 mLs of media containing FBS. The cells were spun down and the supernatant was discarded. The cells were resuspended in 20 mLs of complete media containing P/S and placed in a 75 cm flask.
as §1

[3] = CD-1 mice plasma pharmacokinetics, bendamustine C14 ester albumin nanoparticle i.v.; assay type: in vivo; details: mouse, iv; for Vd: Mean n = 3; for AUC(0-t): Mean n = 3, read-out: AUC0-6 of C14 Ester in plasma; for AUC(0-inf): Mean n = 3, read-out: AUC0-∞ of C14 Ester in plasma; for clearance: Mean n = 3, read-out: CL of C14 Ester; for half-life: Mean n = 3, read-out: t1/2 of C14 Ester in plasma (converted)
Procedure: Another embodiment of the invention, bendamustine C14 ester was formulated into a nanoparticle intraveneous formulation according to the methods described above and administered to CD-1 mice. The amount of bendamustine (BM1) and bendamustine C14 ester was determined in the mice plasma.

[4] = Tumor and plasma levels, H460 tumor efficacy PK group; details: nu/nu, mouse, in vivo
Procedure: The formulations were administrated as 100 μL dose volume through tail vein injection within 30 minutes after compounds were formulated. All the mice were weighed and tumors measured twice weekly. At the last day of the study, plasma, tumor, lung, liver, spleen, left kidney, brain and legs were collected and quickly frozen for further analysis two hours post-dosing.
(§2) A portion of the tumor bearing mice were dosed as a satellite PK group. Each group was dosed as described for the tumor efficacy group, however the PK group was euthanized and tissue samples collected at 1, 3 and 6 hours post dosing on day 2. The tissues collected included blood, lung, liver and tumor. Samples were analyzed for bendamustine HCl and the corresponding ester analogue as described in the LC-MS protocol section.
(§3) Plasma and other tissues were prepared for high performance liquid chromatography (HPLC)/mass spectrometric analysis according to a standard protocol following protein precipitation with acetonitrile containing an internal standard. The samples were then analyzed for both bendamustine HCl and bendamustine esters of the invention and alprenolol (internal standard) via HPLC coupled with tandem mass spectrometry. Tissue samples were homogenized in sodium phosphate buffer and the value obtained from the assay was multiplied by 3 to correct for dilution during processing.

[5] = tested on: MDA-MB-231 xenografts; test: Nude mouse MDA-MB-231 tumor efficacy study; assay type: in vivo, athymic nude mice; details: tail vein day 1 and 2
Procedure: Charles River Labs athymic nude mice were subcutaneous injected with 5×10^6 human tumor cells in matrigel. The tumor volume was monitored until an average tumor size of ˜150 mm^3 was obtained in the mouse population The mice were then randomized in to one of the nine treatment groups (summarized in table below) with a population of 10 mice per group (n=10). Each of the formulations were dosed at 100 μL fixed volume via tail vein injection on day 1 and day 2 of the study. Mice were weighed and the tumor volume measured every 3-4 days for 3 weeks of the study duration.

[6] = tested on: H460 tumor cells (large cell lung cancer); test: Nude mouse H460 tumor efficacy study; assay type: in vivo, nu/nu mouse; details: tail vein
Procedure: 2×10^6 cells/100 ul in the mix of medium and Matrigel (1:1 ratio) solution was injected into right back flank of each nu/nu mouse. The implanted mice were monitored and measured with electric calipers. The study started when the tumors reached ˜150 mm^3 in size. The mice were measured and randomized into 9 groups with 10 mice in each group per the below table: […]

[7] = Tumor and plasma levels, MDA-MB-231 tumor efficacy PK group; details: athymic nude, mouse, in vivo
Procedure: as §2, §3

[8] = tested on: RPMI 8226 (Human Plasmacytoma, Myeloma B Cells)
Procedure: Cells (originated from ATCC) were cultured on RPMI medium. Cell suspension was centrifuged and resuspended in 50% Matrigel/HBSS to a final concentration of 7×10^7 cells/ml. The suspension was implanted s.c. in the right flank of the anesthetized mouse at a volume of 100 μl.
Seven ml saline were added to the original vial containing 3.5 mg powder resulting in 0.5 mg/ml. Three ml of this solution were added to 27 ml saline to receive 0.05 mg/ml concentration.
bendamustine preparation: 13.5 mg was dissolved in 3.6 ml of 1:1 mixture of 0.9% saline/5% mannitol just before the treatment. 1.05 ml of this solution was added to 0.95 ml diluent for 2 mg/ml solution.
1.05 ml of this solution was added to 0.95 ml diluent for 2 mg/ml solution.
On day 21, mice were sorted by the optimal average tumor volume (˜150 mm^3) and were allocated into eight groups of 9 mice each.
[formula] The analysis of weight gain and tumor volume progression was made using one-way ANOVA followed by Tukey post-hoc comparisons. Results

[9] = reported; cited from earlier work
[10] = 80 mg/kg, Ester level in plasma at 1 hour, HSA nanoparticle
[11] = 80 mg/kg, Ester level in plasma at 1 hour, Solution
[12] = 80 mg/kg, Ester level in tumor at 1 hour, HSA nanoparticle
[13] = 80 mg/kg, Ester level in tumor at 1 hour, Solution
[14] = HSA nanoparticle, 80 mg/kg Free Base Eq.
[15] = Solution, 80 mg/kg Free Base Eq.
[16] = 20 mg/kg iv on days 1 and 2, day 46
[17] = 37.5 mg/kg iv on days 1 and 2, day 46
[18] = Solution (TREANDA), 37.5 mg/kg Free Base Eq.

CCCCCCCCCCCCCCOC(=O)CCCc1nc2cc(N(CCCl)CCCl)ccc2n1C [Bendamustine C14 Ester, 4-{5-[Bis-(chloroethyl)-amino]-1-methyl-1H-benzimidazol-2-yl}butyric acid tetradecyl ester]
IC50 [1]: 130 µM | IC50 [2]: > 200 µM | Vd ([3]; 30 mg/kg, 30 mg-eq/kg): 3.2 L/kg | AUC(0-t) ([3]; 30 mg/kg, 30 mg-eq/kg): 31700 ng·h/mL | AUC(0-inf) ([3]; 30 mg/kg, 30 mg-eq/kg): 31700 ng·h/mL | clearance ([3]; 30 mg/kg, 30 mg-eq/kg): 24 mL/min/kg | half-life ([3]; 30 mg/kg, 30 mg-eq/kg): 1.52 h | Vd ([3]; 55 mg/kg, 55 mg-eq/kg): 2.5 L/kg | AUC(0-t) ([3]; 55 mg/kg, 55 mg-eq/kg): 48900 ng·h/mL | AUC(0-inf) ([3]; 55 mg/kg, 55 mg-eq/kg): 49000 ng·h/mL | clearance ([3]; 55 mg/kg, 55 mg-eq/kg): 29 mL/min/kg | half-life ([3]; 55 mg/kg, 55 mg-eq/kg): 0.98 h | Vd ([3]; 80 mg/kg, 80 mg-eq/kg): 5.2 L/kg | AUC(0-t) ([3]; 80 mg/kg, 80 mg-eq/kg): 46300 ng·h/mL | AUC(0-inf) ([3]; 80 mg/kg, 80 mg-eq/kg): 46500 ng·h/mL | clearance ([3]; 80 mg/kg, 80 mg-eq/kg): 56 mL/min/kg | half-life ([3]; 80 mg/kg, 80 mg-eq/kg): 1.09 h | concentration at 1 h [4, 10]: 3650 ng/mL | concentration at 1 h [4, 11]: 32200 ng/mL | concentration at 1 h [4, 12]: 4570 ng/mL | concentration at 1 h [4, 13]: 8570 ng/mL | % Morbidity ([5]; HSA nanoparticle, 80 mg/kg): 60% | % Mortality ([5]; HSA nanoparticle, 80 mg/kg): 0% | % Tumor Inh. ([5]; HSA nanoparticle, 80 mg/kg): 86.5% | % Morbidity ([5]; Solution, 80 mg/kg): 40% | % Mortality ([5]; Solution, 80 mg/kg): 0% | % Tumor Inh. ([5]; Solution, 80 mg/kg): 90% | % Morbidity [6, 14]: 10% | % Mortality [6, 14]: 0% | % Tumor Inh. [6, 14]: 40% | % Morbidity [6, 15]: 100% | % Mortality [6, 15]: 40% | % Tumor Inh. [6, 15]: 81% | concentration at 1 h [7, 10]: 5730 ng/mL | concentration at 1 h [7, 11]: 14 ng/mL | concentration at 1 h [7, 12]: 10400 ng/mL | concentration at 1 h [7, 13]: 396 ng/mL

COC(=O)CCCc1nc2cc(N(CCCl)CCCl)ccc2n1C [—CH3, 4-{5-[Bis-(2-chloro-ethyl)-amino]-1-methyl-1H-benzoimidazol-2-yl}-butyric acid methyl ester]
IC50 [1]: 1.2 µM | IC50 [2]: 66 µM | melting point: 60 to 63 °C (dec.)

Cn1c(CCCC(=O)O)nc2cc(N(CCCl)CCCl)ccc21 [Bendamustine, 4-[5-[bis(2-chloroethyl)amino]-1-methylbenzimidazol-2-yl]butanoic acid]
IC50 [1]: 4 to 26 µM | IC50 [2]: 13 to 16 µM | Max BW (mean) reduction ([8]; 20 mg/kg iv on days 1 and 2): −2.7% | No. of TRD ([8]; 20 mg/kg iv on days 1 and 2): 0 | No. og nTRD ([8]; 20 mg/kg iv on days 1 and 2): 0 | % TGI [8, 16]: 66*** % | No. of CR [8, 16]: 0 | No. of PR [8, 16]: 0 | mean tumor volume, (mean ± se) [8, 16]: 205 ± 44 | Max BW (mean) reduction ([8]; 37.5 mg/kg iv on days 1 and 2): −6.2% | No. of TRD ([8]; 37.5 mg/kg iv on days 1 and 2): 0 | No. og nTRD ([8]; 37.5 mg/kg iv on days 1 and 2): 0 | % TGI [8, 17]: 81% | No. of CR [8, 17]: 0 | No. of PR [8, 17]: 0 | mean tumor volume, (mean ± se) [8, 17]: 113 ± 23 | half-life in vivo [9]: 6 to 10 min | concentration at 1 h ([4]; 37.5 mg/kg, BM1 level in plasma at 1 hour, Solution (TREANDA)): 1550 ng/mL | concentration at 1 h ([4]; 37.5 mg/kg, BM1 level in tumor at 1 hour, Solution (TREANDA)): 1470 ng/mL | % Morbidity ([5]; Solution, 37.5 mg/kg): 10% | % Mortality ([5]; Solution, 37.5 mg/kg): 0% | % Tumor Inh. ([5]; Solution, 37.5 mg/kg): 77% | % Morbidity [6, 18]: 0/0% | % Mortality [6, 18]: 0/0% | % Tumor Inh. [6, 18]: 41.5% | concentration at 1 h ([7]; 37.5 mg/kg, BM1 level in plasma at 1 hour, Solution): 906 ng/mL | concentration at 1 h ([7]; 37.5 mg/kg, BM1 level in tumor at 1 hour, Solution): 558 ng/mL
